Results published in article PMC11134331, “Cell-active small molecule inhibitors validate the SNM1A DNA repair nuclease as a cancer target” (Chemical Science, 2024).
Where two headings read alike, the source gives them in different places.

Columns and labels:
[1] = target: T1, SNM1B (Homo sapiens, UniProt Q9H816); experiment: gel-based nuclease assay, SNM1B; assay type: biochemical; settings: 1 nM SNM1B
T1 construct: for the MBL and β-CASP domains of SNM1B (aa 1–335) into baculoviral expression vectors pFB-CT10HF-LIC; made in house; host or cells: Sf9 insect cells (baculovirus)
T1 sequence (Q9H816 1-335): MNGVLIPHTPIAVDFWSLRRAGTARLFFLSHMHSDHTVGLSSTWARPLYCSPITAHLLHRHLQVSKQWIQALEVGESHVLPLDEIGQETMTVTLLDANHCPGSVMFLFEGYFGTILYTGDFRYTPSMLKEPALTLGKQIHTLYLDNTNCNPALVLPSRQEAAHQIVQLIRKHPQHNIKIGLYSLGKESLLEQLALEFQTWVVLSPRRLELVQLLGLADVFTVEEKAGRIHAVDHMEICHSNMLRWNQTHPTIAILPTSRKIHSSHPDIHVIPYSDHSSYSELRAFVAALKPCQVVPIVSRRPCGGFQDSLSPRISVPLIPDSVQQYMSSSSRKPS
Text: (§1) To validate the inhibition of SNM1A, SNM1B, and SNM1C observed in the fluorescence-based screening assays, we then performed gel-based assays using 3′ terminally-labelled oligonucleotide substrates that enable both quantitative and qualitative (visual) assessment of the pattern of inhibition, for a subset of compounds. Importantly, whereas the fluorescence-based assay measures a single hydrolytic event at the substrate terminus, the gel-based nuclease assay informs on the pattern of digestion of the entire 51-mer substrate DNA over time.
(§2) Standard exonuclease assays were carried out in a 10 μL final volume containing 20 mM HEPES-KOH, pH 7.5, 50 mM KCl, 0.5 mM TCEP, 10 mM MgCl2, 0.05% (v/v) Triton X-100, 5% (v/v) glycerol, and SNM1 proteins as indicated. Inhibitors were dissolved in DMSO and diluted immediately prior to the reaction in the above buffer. Inhibitors were serially diluted two-fold from 100 μM. The DMSO concentration was kept constant at 0.1% (v/v) in the final reaction mixture. Inhibitors were incubated with the indicated SNM1 enzyme for 10 minutes at room temperature; reactions were initiated by addition of 10 nM DNA substrate and incubated at 37 °C for 20 min. Reactions were quenched by addition of 5 μL stop solution (95% formamide, 10 mM EDTA, 0.25% (v/v) xylene cyanol, 0.25% (v/v) bromophenol blue) and heated at 95 °C for 3 min. Reactions were analysed by 20% denaturing polyacrylamide gel electrophoresis solution of 19 : 1 acrylamide:bis-acrylamide, BioRad and 7 M urea (Sigma Aldrich) in 1 × TBE (Tris-borate EDTA) buffer. Electrophoresis was carried out at 525 V for 75 minutes; gels were subsequently fixed for 60 minutes in a 50% (v/v) methanol, 10% (v/v) acetic acid solution, and dried at 80 °C for two hours under vacuum. Dried gels were exposed to a Kodak Phosphor imager screen and scanned using a Typhoon 9500 instrument (GE Healthcare), scanned images were quantified using ImageJ.
Suppl. Figure 10. Increasing concentrations (as indicated, in μM) of compounds incubated with 1 nM SNM1B or 2.5 nM SNM1C (room temperature, 10 min), before initiating nuclease reaction by addition of ssDNA (37 °C, 20 min). Products were analysed by 20% denaturing PAGE. Gels are representative versions from a minimum of three independent experimental repeats.
(1 picture or pasted object on this page, not shown here)

[2] = target: T2, SNM1A (Homo sapiens, UniProt Q6PJP8); experiment: gel-based nuclease assay, SNM1A; assay type: biochemical; set-up: DNA encoding for the MBL and β-CASP domains of SNM1A (aa 676–1040) was cloned into the baculovirus transfer vector pFB-LIC-Bse; inferred from vector pFB-LIC-Bse and the IMAC purification; made in house; host or cells: Sf9 insect cells (baculovirus)
T2 sequence (Q6PJP8 676-1040): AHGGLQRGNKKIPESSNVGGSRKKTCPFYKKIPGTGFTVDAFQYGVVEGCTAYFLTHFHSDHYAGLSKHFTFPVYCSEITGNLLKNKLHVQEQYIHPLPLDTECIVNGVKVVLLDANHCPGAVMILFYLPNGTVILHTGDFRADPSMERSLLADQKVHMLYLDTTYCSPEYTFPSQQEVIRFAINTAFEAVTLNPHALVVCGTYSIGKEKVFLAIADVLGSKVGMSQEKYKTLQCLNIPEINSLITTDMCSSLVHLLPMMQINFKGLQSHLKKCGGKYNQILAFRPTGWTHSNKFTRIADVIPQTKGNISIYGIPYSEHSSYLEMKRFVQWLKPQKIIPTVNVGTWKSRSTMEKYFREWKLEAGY
Text: as §1, §2

Question: Which “inhibition of SNM1B in gel-based assay” value [1] does the source give for `C[C@H](Nc1nc(NCc2ccco2)nc2ccc(Cl)cc12)C(=O)NO` [compound 19] here?
Answer: inhibits each of SNM1A–C

Question: And the “inhibition of SNM1A in gel-based assay” value ([2]; 0.5 nM SNM1A)?
Answer: inhibits each of SNM1A–C

Question: What about the IC50 ([2]; Suppl. Figure 11C, three independent experiments, read-out: SNM1A IC50 estimated from densitometric analysis of gel based assays) of the same compound?
Answer: 7.6 µM

Question: And the IC50 ([2]; direct quantification of ratio between intact substrate and digestion product, read-out: SNM1A IC50 estimated from gel-based assay)?
Answer: ~8 µM
